Assay results published in patent publication US20110230476A1, “PI3 KINASE INHIBITORS AND USES THEREOF” (AVILA THERAPEUTICS, INC., priority 2009, published 2011).

What was measured:
PI3K = PI3K HCT116 cellular assay (Western blot); assay type: cell-based; details: Homo sapiens, HCT-116, HCT116 colon cancer cells, 1 hour incubation, read-out: PI3K Inhibition
Method: PI3K HCT116 Cellular Assay
Selected compounds were assayed in HCT116 colon cancer cells. […] Cells were then washed with PBS, lysed and the protein lysates were then recovered and analyzed by Western blot.

PI3Kγ (p120γ) = biological target: T1, PI3Kγ (p120γ) (Homo sapiens, UniProt P48736); assay: HTRF assay, potency against active PI3Kγ; assay type: biochemical; details: [ATP]=50 μM, [di-C8-PIP2]=10 μM, 30 min pre-incubation, read-out: PI3Kγ Inhibition
T1 construct: purchased BPS Bioscience (San Diego, Calif.) or Millipore (Billerica, Mass.)
T1 sequence (P48736 whole entry): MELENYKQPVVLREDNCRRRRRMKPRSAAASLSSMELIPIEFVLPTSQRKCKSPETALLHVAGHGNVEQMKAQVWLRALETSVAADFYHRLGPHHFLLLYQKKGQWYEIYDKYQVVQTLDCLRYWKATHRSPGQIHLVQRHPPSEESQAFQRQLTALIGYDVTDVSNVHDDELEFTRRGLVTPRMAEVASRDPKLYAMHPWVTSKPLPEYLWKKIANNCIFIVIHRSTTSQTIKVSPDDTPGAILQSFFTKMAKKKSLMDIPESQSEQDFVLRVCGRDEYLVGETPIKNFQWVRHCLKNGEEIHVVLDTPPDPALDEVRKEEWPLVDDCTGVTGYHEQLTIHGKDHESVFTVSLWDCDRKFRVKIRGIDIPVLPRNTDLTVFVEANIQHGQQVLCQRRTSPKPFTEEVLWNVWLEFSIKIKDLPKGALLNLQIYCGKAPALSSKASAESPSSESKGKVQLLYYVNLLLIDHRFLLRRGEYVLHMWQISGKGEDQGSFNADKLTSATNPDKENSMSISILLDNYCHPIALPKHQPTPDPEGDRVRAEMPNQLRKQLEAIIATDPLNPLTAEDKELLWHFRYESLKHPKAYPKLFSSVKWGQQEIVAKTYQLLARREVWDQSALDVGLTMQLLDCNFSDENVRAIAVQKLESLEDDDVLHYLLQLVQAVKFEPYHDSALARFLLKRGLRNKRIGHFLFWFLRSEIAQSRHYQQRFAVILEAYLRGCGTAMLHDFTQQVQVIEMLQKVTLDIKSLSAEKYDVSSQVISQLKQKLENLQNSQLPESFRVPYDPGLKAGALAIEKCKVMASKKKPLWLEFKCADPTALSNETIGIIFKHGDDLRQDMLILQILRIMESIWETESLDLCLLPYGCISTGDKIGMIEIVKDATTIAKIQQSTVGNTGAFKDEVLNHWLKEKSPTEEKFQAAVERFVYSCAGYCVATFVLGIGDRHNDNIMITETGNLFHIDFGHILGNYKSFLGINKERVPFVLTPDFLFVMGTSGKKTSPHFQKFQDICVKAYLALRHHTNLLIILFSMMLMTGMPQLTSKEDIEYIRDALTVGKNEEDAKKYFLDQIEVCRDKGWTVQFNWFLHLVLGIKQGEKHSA
From the text: Homogeneous Time Resolved Fluorescence (HTRF) Assay Protocol for Potency Assessment Against the Active Forms of PI3Kα, PI3Kβ, and PI3Kγ
The protocol below describes an end-point, competition-binding HTRF assay used to measure inherent potency of test compounds against active PI3Kα (p110α/p85α), PI3Kβ (p110β/p85α), and PI3Kγ (p120γ) enzymes. The mechanics of the assay platform are best described by the vendor (Millipore, Billerica, Mass.) on their website at the following URL: www.millipore.com/coa/tech1/74jt4z.
Briefly, Stop solution (Stop A, #33-007 and Stop B, #33-009; 3:1 ratio) and Detection Mix (from DMC, #33-015 with DMA, #33-011 and DMB, #33-013; 18:1:1 ratio) were prepared as recommended by the manufacturer about 2 hrs prior to use. Additionally, 1× reaction buffer (from 4× buffer stock# 33-003), 1.4× stocks of PI3Kα, PI3Kβ, and PI3Kγ enzymes from BPS Bioscience (San Diego, Calif.) or Millipore (Billerica, Mass.) with di-C8-PIP2 lipid substrate (#33-005), and a 4×ATP solution (#A7699 Sigma/Aldrich; St. Louis, Mo.) were prepared in 1× reaction buffer. 15 μL of PI3K enzymes and lipid substrate mix were pre-incubated in a Corning (#3573) 384-well, black, non-treated microtiter plate (Corning, N.Y.) for 30 min at 25° C. with a 0.5 μL volume of 50% DMSO and serially diluted compounds prepared in 50% DMSO. Lipid kinase reactions were started with the addition of 5 μL of ATP solution, mixed for 15 sec on a rotary plate shaker and incubated for 30-60 minutes at 25° C. Next, reactions were stopped with a 5 μL addition of Stop solution immediately followed by a 5 μL volume of Detection Mix. Stopped reactions were equilibrated for 1 and 18 hrs at room temperature and read in a Synergy^4 plate reader from BioTek (Winooski, Vt.) at λex330-80/λem620-35 and λem665-7.5. At the conclusion of each assay, the HTRF ratio from fluorescence emission values for each well was calculated and % Inhibition determined from averaged controls wells (+/−PI3K enzyme). % Inhibition values for each compound were then plotted against inhibitor concentration to estimate IC50 from log [Inhibitor] vs Response, Variable Slope model in GraphPad Prism from GraphPad Software (San Diego, Calif.).
[Reagent] used in optimized protocol: • [p110α/p85α]=0.5-1.5 nM, [ATP]=50 μM, [di-C8—PIP2]=10 μM • [p110β/p85α]=0.75 nM, [ATP]=50 μM, [di-C8—PIP2]=10 μM • [p120γ]=2-2.5 nM, [ATP]=50 μM, [di-C8—PIP2]=10 μM • (ATP KMapp for both enzymes was estimated to be 40-70 μM)

PI3Kα (p110α/p85α) = biological target: T2, PI3Kα (p110α/p85α) (Homo sapiens, UniProt P42336); assay: HTRF assay, potency against active PI3Kα; assay type: biochemical; details: HTRF; [ATP]=50 μM, [di-C8-PIP2]=10 μM; 30 min pre-incubation; read-out: PI3Kα Inhibition
T2 construct: purchased BPS Bioscience (San Diego, Calif.) or Millipore (Billerica, Mass.)
T2 sequence (P42336 whole entry): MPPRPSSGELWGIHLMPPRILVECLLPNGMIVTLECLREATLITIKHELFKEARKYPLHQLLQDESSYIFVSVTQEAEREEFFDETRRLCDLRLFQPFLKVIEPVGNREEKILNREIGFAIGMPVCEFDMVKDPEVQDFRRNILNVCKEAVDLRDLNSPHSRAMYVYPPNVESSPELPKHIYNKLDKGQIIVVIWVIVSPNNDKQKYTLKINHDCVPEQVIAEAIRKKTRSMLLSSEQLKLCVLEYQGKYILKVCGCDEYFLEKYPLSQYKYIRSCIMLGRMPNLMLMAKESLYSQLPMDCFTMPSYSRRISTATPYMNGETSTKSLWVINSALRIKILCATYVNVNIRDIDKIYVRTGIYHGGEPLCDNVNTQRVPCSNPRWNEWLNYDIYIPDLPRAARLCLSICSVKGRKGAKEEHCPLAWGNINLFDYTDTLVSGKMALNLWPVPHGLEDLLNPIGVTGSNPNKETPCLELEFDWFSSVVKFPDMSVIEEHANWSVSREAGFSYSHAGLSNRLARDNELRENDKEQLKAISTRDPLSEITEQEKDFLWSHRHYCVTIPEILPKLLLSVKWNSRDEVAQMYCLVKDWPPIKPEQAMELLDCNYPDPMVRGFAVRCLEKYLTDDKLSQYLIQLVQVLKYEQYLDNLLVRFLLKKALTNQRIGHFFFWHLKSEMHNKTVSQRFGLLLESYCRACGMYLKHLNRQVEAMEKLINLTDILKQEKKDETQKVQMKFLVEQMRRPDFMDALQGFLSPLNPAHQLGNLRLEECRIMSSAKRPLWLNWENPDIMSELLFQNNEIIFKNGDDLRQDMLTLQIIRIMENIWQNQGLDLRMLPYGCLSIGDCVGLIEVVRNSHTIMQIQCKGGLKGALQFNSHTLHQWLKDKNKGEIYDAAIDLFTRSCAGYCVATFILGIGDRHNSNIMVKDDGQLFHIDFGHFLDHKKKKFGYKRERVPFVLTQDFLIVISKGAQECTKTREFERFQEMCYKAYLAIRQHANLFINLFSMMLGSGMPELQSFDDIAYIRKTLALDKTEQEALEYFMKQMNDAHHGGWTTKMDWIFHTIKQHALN
T2 sequence (P27986 whole entry partner): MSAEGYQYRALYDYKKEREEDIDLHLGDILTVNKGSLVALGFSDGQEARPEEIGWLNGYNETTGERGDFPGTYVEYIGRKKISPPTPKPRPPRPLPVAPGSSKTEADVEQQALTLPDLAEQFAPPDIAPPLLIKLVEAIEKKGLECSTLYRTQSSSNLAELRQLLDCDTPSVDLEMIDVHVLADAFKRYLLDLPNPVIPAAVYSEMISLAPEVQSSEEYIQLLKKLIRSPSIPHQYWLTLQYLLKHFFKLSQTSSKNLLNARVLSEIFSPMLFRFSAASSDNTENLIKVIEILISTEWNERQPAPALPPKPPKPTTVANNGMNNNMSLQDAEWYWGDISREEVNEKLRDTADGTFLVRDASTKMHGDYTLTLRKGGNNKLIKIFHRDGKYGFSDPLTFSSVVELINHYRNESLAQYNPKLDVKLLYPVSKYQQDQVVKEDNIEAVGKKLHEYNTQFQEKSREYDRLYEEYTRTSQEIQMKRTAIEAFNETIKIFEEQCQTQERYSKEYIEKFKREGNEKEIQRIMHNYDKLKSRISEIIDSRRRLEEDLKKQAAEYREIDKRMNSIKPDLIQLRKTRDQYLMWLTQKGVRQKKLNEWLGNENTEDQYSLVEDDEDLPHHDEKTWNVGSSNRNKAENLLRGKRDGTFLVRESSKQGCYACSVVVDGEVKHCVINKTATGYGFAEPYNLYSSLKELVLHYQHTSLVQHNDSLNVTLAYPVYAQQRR
Method in brief: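 IC50 came from a variable-slope fit of % inhibition, calculated from the HTRF emission ratio relative to wells with and without enzyme. Reactions with the active enzyme complex ran 30-60 minutes at 25 °C after ATP addition before stop and detection reagents.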

| Compound | EC50 (PI3K) | IC50 (PI3Kγ (p120γ)) | IC50 (PI3Kα (p110α/p85α)) |
| --- | --- | --- | --- |
| C=CC(=O)NCC(=O)N1CCN(Cc2cc3nc(-c4cccc5[nH]ncc45)nc(N4CCOCC4)c3s2)CC1 [II-a-6, N-(2-(4-((2-(1H-indazol-4-yl)-4-morpholinothieno[3,2-d]pyrimidin-6-yl)methyl)piperazin-1-yl)-2-oxoethyl)acrylamide] | 2 to 5 µM | > 1 µM | 0.1 to 1 µM |
| CC(C)=CC(=O)CCC(=O)NCCS(=O)(=O)N1CCN(Cc2cc3nc(-c4cccc(O)c4)nc(N4CCOCC4)c3s2)CC1 [II-a-28, N-(2-(4-((2-(3-hydroxyphenyl)-4-morpholinothieno[3,2-d]pyrimidin-6-yl)methyl)piperazin-1-ylsulfonyl)ethyl)-6-methyl-4-oxohept-5-enamide] | 0.02 to 0.1 µM | 0.1 to 1 µM | 0.1 to 1 µM |
| C=CC(=O)NCCS(=O)(=O)N1CCN(Cc2cc3nc(-c4cccc(O)c4)nc(N4CCOCC4)c3s2)CC1 [II-a-25, N-(2-(4-((2-(3-hydroxyphenyl)-4-morpholinothieno[3,2-d]pyrimidin-6-yl)methyl)piperazin-1-ylsulfonyl)ethyl)acrylamide] | 0.02 to 0.1 µM | 0.1 to 1 µM | 0.01 to 0.1 µM |
| C=CC(=O)NCC(=O)N1CCN(Cc2cc3nc(-c4cccc(O)c4)nc(N4CCOCC4)c3s2)CC1 [II-a-38, N-(2-(4-((2-(3-hydroxyphenyl)-4-morpholinothieno[3,2-d]pyrimidin-6-yl)methyl)piperazin-1-yl)-2-oxoethyl)acrylamide] |  | > 1 µM | 0.01 to 0.1 µM |
| O=C1NC(=O)/C(=C/c2ccc3nccc(-c4ccncc4)c3c2)S1 [GSK-615, reference compound] | < 0.02 µM |  |  |
| C=CC(=O)N1CCN(Cc2cc3nc(-c4ccccc4)nc(N4CCOCC4)c3s2)CC1 [II-a-17, 1-(4-((4-morpholino-2-phenylthieno[3,2-d]pyrimidin-6-yl)methyl)piperazin-1-yl)prop-2-en-1-one] |  | > 1 µM | > 1 µM |
| C=CC(=O)NCc1ccc(C(=O)N2CCN(Cc3cc4nc(-c5cccc6[nH]ncc56)nc(N5CCOCC5)c4s3)CC2)cc1 [II-a-21, N-(4-(4-((2-(1H-indazol-4-yl)-4-morpholinothieno[3,2-d]pyrimidin-6-yl)methyl)piperazine-1-carbonyl)benzyl)acrylamide] |  | > 1 µM | > 1 µM |
| C=CC(=O)NC1CCC(C(=O)N(C)Cc2cc3nc(-c4cccc(O)c4)nc(N4CCOCC4)c3s2)CC1 (racemic) [II-a-35, (±)-4-acrylamido-N-((2-(3-hydroxyphenyl)-4-morpholinothieno[3,2-d]pyrimidin-6-yl)methyl)-N-methylcyclohexanecarboxamide] | 0.1 to 0.5 µM | 0.1 to 1 µM | 0.1 to 1 µM |
| C/C=C/C(=O)CCC(=O)NCCS(=O)(=O)N1CCN(Cc2cc3nc(-c4cccc(O)c4)nc(N4CCOCC4)c3s2)CC1 [II-a-26, (E)-N-(2-(4-((2-(3-hydroxyphenyl)-4-morpholinothieno[3,2-d]pyrimidin-6-yl)methyl)piperazin-1-ylsulfonyl)ethyl)-4-oxohept-5-enamide] | 0.02 to 0.1 µM | 0.1 to 1 µM | 0.01 to 0.1 µM |
| C=CC(=O)N1Cc2ccc(-c3cc4nc(-c5cccc(O)c5)nc(N5CCOCC5)c4s3)cc2C1 [II-a-27, 1-(5-(2-(3-hydroxyphenyl)-4-morpholinothieno[3,2-d]pyrimidin-6-yl)isoindolin-2-yl)prop-2-en-1-one] |  | > 1 µM | 0.1 to 1 µM |
| C/C=C/C(=O)CCC(=O)N(C)Cc1cc2nc(-c3cccc(O)c3)nc(N3CCOCC3)c2s1 [II-a-40, (E)-N-((2-(3-hydroxyphenyl)-4-morpholinothieno[3,2-d]pyrimidin-6-yl)methyl)-N-methyl-4-oxohept-5-enamide] |  | 0.1 to 1 µM | 0.01 to 0.1 µM |
| CN(C/C=C/C(=O)CCC(=O)N1CCN(Cc2cc3nc(-c4cccc5[nH]ncc45)nc(N4CCOCC4)c3s2)CC1)C(=O)OC(C)(C)C [II-a-24] |  | > 1 µM | 0.01 to 0.1 µM |
| C/C=C/C(=O)CCC(=O)NCCS(=O)(=O)N1CCN(Cc2cc3nc(-c4cccc5[nH]ncc45)nc(N4CCOCC4)c3s2)CC1 [II-a-23, (E)-N-(2-(4-((2-(1H-indazol-4-yl)-4-morpholinothieno[3,2-d]pyrimidin-6-yl)methyl)piperazin-1-ylsulfonyl)ethyl)-4-oxohept-5-enamide] |  | > 1 µM | 0.1 to 1 µM |
| C=CC(=O)N1CCN(C(=O)C2CCN(Cc3cc4nc(-c5cccc(O)c5)nc(N5CCOCC5)c4s3)CC2)CC1 [II-a-34, (1-((2-(3-hydroxyphenyl)-4-morpholinothieno[3,2-d]pyrimidin-6-yl)methyl)piperidin-4-yl)(4-acryloyl-piperazin-1-yl)methanone] |  | > 1 µM | 0.1 to 1 µM |

Continued, values first:

| EC50 (PI3K) | IC50 (PI3Kγ (p120γ)) | IC50 (PI3Kα (p110α/p85α)) | Compound |
| --- | --- | --- | --- |
|  | > 1 µM | 0.1 to 1 µM | C=CC(=O)N1CCN(C(=O)c2ccc(-c3cc4nc(-c5cccc6[nH]ncc56)nc(N5CCOCC5)c4s3)cc2)CC1 [II-a-57, 1-(4-(4-(2-(1H-indazol-4-yl)-4-morpholinothieno[3,2-d]pyrimidin-6-yl)benzoyl)piperazin-1-yl)prop-2-en-1-one] |
|  | > 1 µM | > 1 µM | C=CC(=O)N[C@H]1CC[C@H](C(=O)N(C)Cc2cc3nc(-c4cccc(O)c4)nc(N4CCOCC4)c3s2)CC1 [II-a-42] |
|  | > 1 µM | > 1 µM | CC(C)=CC(=O)CCC(=O)NCC(=O)N1CCN(Cc2cc3nc(-c4cccc5[nH]ncc45)nc(N4CCOCC4)c3s2)CC1 [II-a-41, N-(2-(4-((2-(1H-indazol-4-yl)-4-morpholinothieno[3,2-d]pyrimidin-6-yl)methyl)piperazin-1-yl)-2-oxoethyl)-6-methyl-4-oxohept-5-enamide] |
|  | > 1 µM | 0.01 to 0.1 µM | C=CC(=O)N1CCN(c2ccc(-c3cc4nc(-c5cccc(O)c5)nc(N5CCOCC5)c4s3)cc2)CC1 [II-a-58, 1-(4-(4-(2-(3-hydroxyphenyl)-4-morpholinothieno[3,2-d]pyrimidin-6-yl)phenyl)piperazin-1-yl)prop-2-en-1-one] |
|  | > 1 µM | 0.1 to 1 µM | C/C=C/C(=O)CCC(=O)N1CCN(c2ccnc3ccc(/C=C4\SC(=O)NC4=O)cc23)CC1 [V-2, (Z)-5-((4-(4-((E)-4-oxohept-5-enoyl)piperazin-1-yl)quinolin-6-yl)methylene)thiazolidine-2,4-dione] |
|  | > 1 µM | > 1 µM | C=CC(=O)N(C)CC(=O)N1CCN(Cc2cc3nc(-c4cccc5[nH]ncc45)nc(N4CCOCC4)c3s2)CC1 [II-a-44, N-(2-(4-((2-(1H-indazol-4-yl)-4-morpholinothieno[3,2-d]pyrimidin-6-yl)methyl)piperazin-1-yl)-2-oxoethyl)-N-methylacrylamide] |
|  | > 1 µM | > 1 µM | O=C(/C=C/CNC(=O)CCCC(=O)NCCCOCCOCCOCCCNC(=O)CCCC[C@@H]1SC[C@@H]2NC(=O)N[C@@H]21)CCC(=O)N1CCN(Cc2cc3nc(-c4cccc5[nH]ncc45)nc(N4CCOCC4)c3s2)CC1 [XIV-a-2, N1-((E)-7-(4-((2-(1H-indazol-4-yl)-4-morpholinothieno[3,2-d]pyrimidin-6-yl)methyl)piperazin-1-yl)-4,7-dioxohept-2-enyl)-N5-(15-oxo-19-((3aS,4S,6aR)-2-oxohexahydro-1H-thieno[3,4-d]imidazol-4-yl)-4,7,10-trioxa-14-azanonadecyl)glutaramide] |
|  | 0.1 to 1 µM | > 1 µM | C=CC(=O)n1cc(-c2ccc3c(c2)N(c2nc4c(s2)C(=O)NC(C)(C)C4)CCO3)cn1 [VI-1, 2-(6-(1-acryloyl-1H-pyrazol-4-yl)-2H-benzo[b][1,4]oxazin-4(3H)-yl)-6,6-dimethyl-6,7-dihydrothiazolo[5,4-c]pyridin-4(5H)-one] |
